According to PubChem BioAssay (NCI):
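Exposure lasted 48 hours, with cells grown in 96-well plates and compounds tested at five concentrations. The concentration for full growth arrest is given as TGI.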

Legend:
Experiment in all cases: DTP human tumour cell line panel, 48 h
UACC-62 melanoma = test system: UACC-62 melanoma
EKVX NSCLC = test system: EKVX NSCLC
RXF 393 renal = test system: RXF 393 renal
786-0 renal = test system: 786-0 renal
CAKI-1 renal = test system: CAKI-1 renal
IGROV1 ovarian = test system: IGROV1 ovarian
SF-268 CNS = test system: SF-268 CNS
A549 NSCLC = test system: A549 NSCLC
HL-60(TB) leukemia = test system: HL-60(TB) leukemia
SK-OV-3 ovarian = test system: SK-OV-3 ovarian
MCF7 breast = test system: MCF7 breast
T-47D breast = test system: T-47D breast
ACHN renal = test system: ACHN renal
MDA-MB-435 = test system: MDA-MB-435
KM12 colon = test system: KM12 colon
NCI-H23 lung = test system: NCI-H23 lung
MDA-N = test system: MDA-N
OVCAR-3 ovarian = test system: OVCAR-3 ovarian
NCI-H460 lung = test system: NCI-H460 lung
RPMI-8226 leukemia = test system: RPMI-8226 leukemia
SW-620 colon = test system: SW-620 colon
SK-MEL-2 melanoma = test system: SK-MEL-2 melanoma
PC-3 prostate = test system: PC-3 prostate
SR leukemia = test system: SR leukemia
MDA-MB-231 breast = test system: MDA-MB-231 breast
TK-10 renal = test system: TK-10 renal
UACC-257 melanoma = test system: UACC-257 melanoma
SN12C renal = test system: SN12C renal
NCI/ADR-RES ovarian = test system: NCI/ADR-RES ovarian
HS 578T breast = test system: HS 578T breast
UO-31 renal = test system: UO-31 renal
K-562 leukemia = test system: K-562 leukemia
SF-539 CNS = test system: SF-539 CNS
SNB-75 CNS = test system: SNB-75 CNS
M14 melanoma = test system: M14 melanoma
HCT-15 colon = test system: HCT-15 colon
SK-MEL-5 melanoma = test system: SK-MEL-5 melanoma
NCI-H522 lung = test system: NCI-H522 lung
OVCAR-4 ovarian = test system: OVCAR-4 ovarian
HCT-116 colon = test system: HCT-116 colon
MALME-3M melanoma = test system: MALME-3M melanoma
LOX IMVI melanoma = test system: LOX IMVI melanoma
COLO 205 colon = test system: COLO 205 colon
HCC-2998 colon = test system: HCC-2998 colon
CCRF-CEM leukemia = test system: CCRF-CEM leukemia
BT-549 breast = test system: BT-549 breast
OVCAR-8 ovarian = test system: OVCAR-8 ovarian
SK-MEL-28 melanoma = test system: SK-MEL-28 melanoma
NCI-H226 lung = test system: NCI-H226 lung
DU-145 prostate = test system: DU-145 prostate
HT29 colon = test system: HT29 colon
SNB-19 CNS = test system: SNB-19 CNS
U251 CNS = test system: U251 CNS
MOLT-4 leukemia = test system: MOLT-4 leukemia
A498 renal = test system: A498 renal
HOP-92 NSCLC = test system: HOP-92 NSCLC
OVCAR-5 ovarian = test system: OVCAR-5 ovarian
SF-295 CNS = test system: SF-295 CNS
HOP-62 NSCLC = test system: HOP-62 NSCLC

CCCCC(=O)OC[n+]1ccc(-c2c(COC(=O)NC(C)C)c(COC(=O)NC(C)C)c3n2CCC3)cc1
TGI (UACC-62 melanoma): > 100 µM | TGI (EKVX NSCLC): > 100 µM | TGI (RXF 393 renal): > 100 µM | TGI (786-0 renal): > 100 µM | TGI (CAKI-1 renal): > 100 µM | TGI (IGROV1 ovarian): > 100 µM | TGI (SF-268 CNS): > 100 µM | TGI (A549 NSCLC): > 100 µM | TGI (HL-60(TB) leukemia): > 79.8 µM | TGI (SK-OV-3 ovarian): > 100 µM | TGI (MCF7 breast): > 100 µM | TGI (T-47D breast): > 100 µM | TGI (ACHN renal): > 100 µM | TGI (MDA-MB-435): > 100 µM | TGI (KM12 colon): > 100 µM | TGI (NCI-H23 lung): > 100 µM | TGI (MDA-N): > 100 µM | TGI (OVCAR-3 ovarian): > 100 µM | TGI (NCI-H460 lung): > 100 µM | TGI (RPMI-8226 leukemia): > 100 µM | TGI (SW-620 colon): > 100 µM | TGI (SK-MEL-2 melanoma): > 100 µM | TGI (PC-3 prostate): > 100 µM | TGI (SR leukemia): > 84.4 µM | TGI (MDA-MB-231 breast): > 100 µM | TGI (TK-10 renal): > 100 µM | TGI (UACC-257 melanoma): > 100 µM | TGI (SN12C renal): > 100 µM | TGI (NCI/ADR-RES ovarian): > 100 µM | TGI (HS 578T breast): > 100 µM | TGI (UO-31 renal): > 100 µM | TGI (K-562 leukemia): > 100 µM | TGI (SF-539 CNS): > 100 µM | TGI (SNB-75 CNS): > 100 µM | TGI (M14 melanoma): > 100 µM | TGI (HCT-15 colon): > 100 µM | TGI (SK-MEL-5 melanoma): > 100 µM | TGI (NCI-H522 lung): > 100 µM | TGI (OVCAR-4 ovarian): > 100 µM | TGI (HCT-116 colon): > 100 µM | TGI (MALME-3M melanoma): > 100 µM | TGI (LOX IMVI melanoma): > 100 µM | TGI (COLO 205 colon): > 100 µM | TGI (HCC-2998 colon): > 100 µM | TGI (CCRF-CEM leukemia): > 100 µM | TGI (BT-549 breast): > 100 µM | TGI (OVCAR-8 ovarian): > 100 µM | TGI (SK-MEL-28 melanoma): > 100 µM | TGI (NCI-H226 lung): > 100 µM | TGI (DU-145 prostate): > 100 µM | TGI (HT29 colon): > 100 µM | TGI (SNB-19 CNS): > 100 µM | TGI (U251 CNS): > 100 µM | TGI (MOLT-4 leukemia): > 80.7 µM | TGI (A498 renal): 76.5 µM | TGI (HOP-92 NSCLC): > 100 µM | TGI (OVCAR-5 ovarian): > 100 µM | TGI (SF-295 CNS): > 100 µM | TGI (HOP-62 NSCLC): > 100 µM

CC1(C)Oc2ccccc2OC1O (configuration not stated)
TGI (UACC-62 melanoma): > 100 µM | TGI (EKVX NSCLC): > 100 µM | TGI (RXF 393 renal): > 100 µM | TGI (786-0 renal): > 100 µM | TGI (CAKI-1 renal): > 100 µM | TGI (IGROV1 ovarian): > 100 µM | TGI (SF-268 CNS): > 100 µM | TGI (A549 NSCLC): > 100 µM | TGI (HL-60(TB) leukemia): > 100 µM | TGI (SK-OV-3 ovarian): > 100 µM | TGI (MCF7 breast): > 100 µM | TGI (T-47D breast): > 100 µM | TGI (ACHN renal): > 100 µM | TGI (MDA-MB-435): > 100 µM | TGI (KM12 colon): > 100 µM | TGI (NCI-H23 lung): > 100 µM | TGI (MDA-N): > 100 µM | TGI (OVCAR-3 ovarian): > 100 µM | TGI (NCI-H460 lung): > 100 µM | TGI (RPMI-8226 leukemia): > 100 µM | TGI (SW-620 colon): > 100 µM | TGI (SK-MEL-2 melanoma): > 100 µM | TGI (PC-3 prostate): > 100 µM | TGI (SR leukemia): > 100 µM | TGI (MDA-MB-231 breast): > 100 µM | TGI (TK-10 renal): > 100 µM | TGI (UACC-257 melanoma): > 100 µM | TGI (SN12C renal): > 100 µM | TGI (NCI/ADR-RES ovarian): > 100 µM | TGI (HS 578T breast): > 100 µM | TGI (UO-31 renal): > 100 µM | TGI (K-562 leukemia): > 100 µM | TGI (SF-539 CNS): > 100 µM | TGI (SNB-75 CNS): > 100 µM | TGI (M14 melanoma): > 100 µM | TGI (HCT-15 colon): > 100 µM | TGI (SK-MEL-5 melanoma): > 100 µM | TGI (NCI-H522 lung): > 100 µM | TGI (OVCAR-4 ovarian): > 100 µM | TGI (HCT-116 colon): > 100 µM | TGI (MALME-3M melanoma): > 100 µM | TGI (LOX IMVI melanoma): > 100 µM | TGI (COLO 205 colon): > 100 µM | TGI (HCC-2998 colon): > 100 µM | TGI (CCRF-CEM leukemia): > 100 µM | TGI (BT-549 breast): > 100 µM | TGI (OVCAR-8 ovarian): > 100 µM | TGI (SK-MEL-28 melanoma): > 100 µM | TGI (NCI-H226 lung): > 100 µM | TGI (DU-145 prostate): > 100 µM | TGI (HT29 colon): > 100 µM | TGI (SNB-19 CNS): > 100 µM | TGI (U251 CNS): > 100 µM | TGI (MOLT-4 leukemia): > 100 µM | TGI (A498 renal): > 100 µM | TGI (HOP-92 NSCLC): > 100 µM | TGI (OVCAR-5 ovarian): > 100 µM | TGI (SF-295 CNS): > 100 µM | TGI (HOP-62 NSCLC): > 100 µM

Cc1[nH]n(-c2ncc(C(=O)O)c(=O)[nH]2)c(=O)c1CCO
TGI (UACC-62 melanoma): > 100 µM | TGI (EKVX NSCLC): > 100 µM | TGI (RXF 393 renal): > 100 µM | TGI (786-0 renal): > 100 µM | TGI (CAKI-1 renal): > 100 µM | TGI (IGROV1 ovarian): > 100 µM | TGI (SF-268 CNS): > 100 µM | TGI (A549 NSCLC): > 100 µM | TGI (HL-60(TB) leukemia): > 100 µM | TGI (SK-OV-3 ovarian): > 100 µM | TGI (MCF7 breast): > 100 µM | TGI (T-47D breast): > 100 µM | TGI (ACHN renal): > 100 µM | TGI (MDA-MB-435): > 100 µM | TGI (KM12 colon): > 100 µM | TGI (NCI-H23 lung): > 100 µM | TGI (MDA-N): > 100 µM | TGI (OVCAR-3 ovarian): > 100 µM | TGI (NCI-H460 lung): > 100 µM | TGI (RPMI-8226 leukemia): > 100 µM | TGI (SW-620 colon): > 100 µM | TGI (SK-MEL-2 melanoma): > 100 µM | TGI (PC-3 prostate): > 100 µM | TGI (SR leukemia): > 100 µM | TGI (MDA-MB-231 breast): > 100 µM | TGI (TK-10 renal): > 100 µM | TGI (UACC-257 melanoma): > 100 µM | TGI (SN12C renal): > 100 µM | TGI (NCI/ADR-RES ovarian): > 100 µM | TGI (HS 578T breast): > 100 µM | TGI (UO-31 renal): > 100 µM | TGI (K-562 leukemia): > 100 µM | TGI (SF-539 CNS): > 100 µM | TGI (SNB-75 CNS): > 100 µM | TGI (M14 melanoma): > 100 µM | TGI (HCT-15 colon): > 100 µM | TGI (SK-MEL-5 melanoma): > 100 µM | TGI (NCI-H522 lung): > 100 µM | TGI (OVCAR-4 ovarian): > 100 µM | TGI (HCT-116 colon): > 100 µM | TGI (MALME-3M melanoma): > 100 µM | TGI (LOX IMVI melanoma): > 100 µM | TGI (COLO 205 colon): > 100 µM | TGI (HCC-2998 colon): > 100 µM | TGI (CCRF-CEM leukemia): > 100 µM | TGI (BT-549 breast): > 100 µM | TGI (OVCAR-8 ovarian): > 100 µM | TGI (SK-MEL-28 melanoma): > 100 µM | TGI (NCI-H226 lung): > 100 µM | TGI (DU-145 prostate): > 100 µM | TGI (HT29 colon): > 100 µM | TGI (SNB-19 CNS): > 100 µM | TGI (U251 CNS): > 100 µM | TGI (MOLT-4 leukemia): > 100 µM | TGI (A498 renal): > 100 µM | TGI (HOP-92 NSCLC): > 100 µM | TGI (OVCAR-5 ovarian): > 100 µM | TGI (SF-295 CNS): > 100 µM | TGI (HOP-62 NSCLC): > 100 µM
